This note sets out measurements from patent US9265773B2, “Tetracyclic heterocycle compounds and methods of use thereof for the treatment of viral diseases” (priority 2011, dated 2016).

One experiment concerns HCV replicon genotype 1a. Description: microbe, parasite or virus in culture. It is filed as cell-based. Particulars: genotype 1a replicon cells, incubated 96 hours, NS3/4A ELISA readout. Background: In antiviral work, replicon cells carry a viral genome segment that copies itself.
The test system of the next experiment is HCV replicon genotype 1b. Description: microbe, parasite or virus in culture. It is filed as cell-based. Conditions: genotype 1b replicon cells, incubated 96 hours, NS3/4A ELISA readout.

A word on the IC50: it is the midpoint of a concentration-inhibition curve. Low readings indicate inhibition by little substance, high ones a need for much substance. On to `CNC(=O)c1c(-c2ccc(F)cc2)oc2cc(N(C)S(C)(=O)=O)c(-c3ccc4c(n3)-c3cc5c(F)cccc5n3C(CN(C)C)O4)cc12` (stereo not shown) [Compound 122, 5-(6-((dimethylamino)methyl)-11-fluoro-6H-pyrido[2′,3′:5,6][1,3]oxazino[3,4-a]indol-2-yl)-2-(4-fluorophenyl)-N-methyl-6-(N-methylmethylsulfonamido)benzofuran-3-carboxamide], for which the IC50 in the experiment with HCV replicon genotype 1a was found to be 5.1 nM; in the experiment on HCV replicon genotype 1b, 5.2 nM.
As for `CNC(=O)c1c(-c2ccc(F)cc2)oc2cc(N(C)S(C)(=O)=O)c(-c3ccc4c(c3)-c3cc5cccnc5n3CO4)cc12` [Compound 49], the IC50 was 0.6 nM with HCV replicon genotype 1a (Hepatitis C virus, 96 h) and 1.7 nM in the experiment on HCV replicon genotype 1b (Hepatitis C virus, 96 h).
In the case of `CNC(=O)c1c(-c2ccc(F)cc2)oc2cc(N(C)S(C)(=O)=O)c(-c3ccc4c(c3)-c3[nH]c5ccccc5c3C(c3cccnc3)O4)cc12` (stereo not shown) [Compound 62], the IC50 with HCV replicon genotype 1a (Hepatitis C virus, 96 h) was determined as 12 nM; with HCV replicon genotype 1b (Hepatitis C virus, 96 h), 3.4 nM.
On to `CNC(=O)c1c(-c2ccc(F)cc2)oc2cc(N(C)S(C)(=O)=O)c(-c3ccc4c(n3)-c3cc5c(F)cccc5n3C(CNC(C)C(=O)O)O4)cc12` (stereo not shown) [Compound 117], for which the IC50 with HCV replicon genotype 1a (Hepatitis C virus, 96 h) turned out to be 74 nM; in the experiment on HCV replicon genotype 1b (Hepatitis C virus, 96 h) it was 7.5 nM.
Turning to `CNC(=O)c1c(-c2ccc(F)cc2)oc2cc(N(C)S(C)(=O)=O)c(-c3ccc4c(n3)-c3cc5cccc(C#N)c5n3CO4)cc12` [Compound 18], the IC50 in the experiment on HCV replicon genotype 1a (Hepatitis C virus, 96 h) was 9.2 nM; in the experiment on HCV replicon genotype 1b (Hepatitis C virus, 96 h), 5.4 nM.
Consider `CNC(=O)c1c(-c2ccc(F)cc2)oc2cc(N(CCN3CCOCC3)S(C)(=O)=O)c(-c3ccc4c(n3)-c3cc5c(F)cccc5n3CO4)cc12` [Compound 211, 5-(11-fluoro-6H-pyrido[2′,3′:5,6][1,3]oxazino[3,4-a]indol-2-yl)-2-(4-fluorophenyl)-N-methyl-6-(N-(2-morpholinoethyl)methylsulfonamido)benzofuran-3-carboxamide], for which the IC50 in the experiment on HCV replicon genotype 1a (Hepatitis C virus, 96 h) worked out at 6.5 nM; in the experiment on HCV replicon genotype 1b (Hepatitis C virus, 96 h) it was 12 nM.
`CNC(=O)c1c(-c2ccc(F)cc2)oc2cc(N(C3COC3)S(C)(=O)=O)c(-c3ccc4c(n3)-c3cc5c(F)cccc5n3CO4)cc12` [Compound 199]: the IC50 with HCV replicon genotype 1a (Hepatitis C virus, 96 h) stood at 4.7 nM; in the experiment on HCV replicon genotype 1b (Hepatitis C virus, 96 h), 5.9 nM.
On the same counts, the results for `CNC(=O)c1c(-c2ccc(F)cc2F)oc2cc(N(C)S(C)(=O)=O)c(-c3ccc4c(n3)-c3cc5c(F)cccc5n3CO4)cc12` [Compound 147, 2-(2,4-difluorophenyl)-5-(11-fluoro-6H-pyrido[2′,3′:5,6][1,3]oxazino[3,4-a]indol-2-yl)-N-methyl-6-(N-methylmethylsulfonamido)benzofuran-3-carboxamide] are 9 nM and 6.9 nM.
For `CCNC(=O)C1Oc2ccc(-c3cc4c(C(=O)NC)c(-c5ccc(F)cc5)oc4cc3N(C)S(C)(=O)=O)nc2-c2cc3c(F)cccc3n21` (stereo not shown) [Compound 108], the IC50 amounted to 14 nM in the experiment with HCV replicon genotype 1a and 2.4 nM with HCV replicon genotype 1b.
As for `CNC(=O)c1c(-c2ccc(F)cc2)oc2cc(N(C)S(C)(=O)=O)c(-c3ccc4c(n3)-c3cc5ccccc5n3CO4)cc12` [Compound 1, 2-(4-fluorophenyl)-N-methyl-6-(N-methylmethylsulfonamido)-5-(6H-pyrido[2′,3′:5,6][1,3]oxazino[3,4-a]indol-2-yl)benzofuran-3-carboxamide], the IC50 with HCV replicon genotype 1a (Hepatitis C virus, 96 h) turned out to be 2.4 nM; in the experiment with HCV replicon genotype 1b (Hepatitis C virus, 96 h), 4.8 nM.
On the same counts, the results for `CNC(=O)c1c(-c2ccc(F)cc2)oc2cc(N(C)S(C)(=O)=O)c(-c3ccc4c(n3)-c3cc5c(F)cccc5n3C(CN3CCOCC3)O4)cc12` (stereo not shown) [Compound 123, 5-(11-fluoro-6-(morpholinomethyl)-6H-pyrido[2′,3′:5,6][1,3]oxazino[3,4-a]indol-2-yl)-2-(4-fluorophenyl)-N-methyl-6-(N-methylmethylsulfonamido)benzofuran-3-carboxamide] are 3.4 nM and 3.6 nM.
For `CNC(=O)c1c(-c2ccc(F)cc2)oc2cc(N(C)S(C)(=O)=O)c(-c3ccc4c(c3)-c3cc5c(F)cccc5n3CO4)cc12` [Compound 43, 5-(11-fluoro-6H-benzo[5,6][1,3]oxazino[3,4-a]indol-2-yl)-2-(4-fluorophenyl)-N-methyl-6-(N-methylmethylsulfonamido)benzofuran-3-carboxamide], the IC50 with HCV replicon genotype 1a (Hepatitis C virus, 96 h) was 2.4 nM; in the experiment with HCV replicon genotype 1b (Hepatitis C virus, 96 h), 3.9 nM.
For `CNC(=O)c1c(-c2ccc(F)cc2)oc2cc(N(C)S(C)(=O)=O)c(-c3ccc4c(n3)-c3cc5c(F)cccc5n3C(CNC(C)=O)O4)cc12` (stereo not shown) [Compound 130], the IC50 in the experiment on HCV replicon genotype 1a and with HCV replicon genotype 1b was 3 nM throughout.
`CNC(=O)c1c(-c2ccc(F)cc2)oc2cc(N(C)S(C)(=O)=O)c(-c3ccc4c(n3)-c3cc5cccc(F)c5n3CO4)cc12` [Compound 20]: the IC50 with HCV replicon genotype 1a (Hepatitis C virus, 96 h) stood at 6.7 nM; in the experiment with HCV replicon genotype 1b (Hepatitis C virus, 96 h), 6.9 nM.
Take `CNC(=O)c1c(-c2ccc(F)cc2)oc2cc(N(C)S(C)(=O)=O)c(-c3ccc4c(c3)-c3nc5ccccn5c3CO4)cc12` [Compound 142, 5-(6H-chromeno[4′,3′:4,5]imidazo[1,2-a]pyridin-2-yl)-2-(4-fluorophenyl)-N-methyl-6-(N-methylmethylsulfonamido)benzofuran-3-carboxamide]: the IC50 with HCV replicon genotype 1a (Hepatitis C virus, 96 h) worked out at 4.1 nM; in the experiment with HCV replicon genotype 1b (Hepatitis C virus, 96 h) it was 4 nM.
On to `CNC(=O)c1c(-c2ccc(F)cc2)oc2cc(N(C)S(C)(=O)=O)c(-c3ccc4c(n3)-c3cc5c(F)cccc5n3C(CNC(=O)[C@@H](NC(=O)OC)C(C)C)O4)cc12` (stereo partly shown) [Compound 127], for which the IC50 with HCV replicon genotype 1a amounted to 3.5 nM; in the experiment on HCV replicon genotype 1b, 1.6 nM.
On to `CNC(=O)c1c(-c2ccc(F)cc2)oc2cc(N(CCO)S(C)(=O)=O)c(-c3ccc4c(n3)-c3cc5c(F)cccc5n3CO4)cc12` [Compound 201], for which the IC50 with HCV replicon genotype 1a (Hepatitis C virus, 96 h) turned out to be 2.6 nM; in the experiment on HCV replicon genotype 1b (Hepatitis C virus, 96 h), 5.5 nM.
Turning to `CNC(=O)c1c(-c2ccc(F)cc2)oc2cc(N(C)S(C)(=O)=O)c(-c3ccc4c(n3)-c3cc5c(F)cccc5n3C(CNC(=O)[C@@H](NC(=O)OC)C(C)C)O4)cc12` (stereo partly shown) [Compound 125], the IC50 with HCV replicon genotype 1a (Hepatitis C virus, 96 h) is 5.1 nM; in the experiment on HCV replicon genotype 1b, 3.4 nM.
In the case of `CNC(=O)c1c(-c2ccc(F)cc2)oc2cc(N(C)S(C)(=O)=O)c(-c3cc4c(cn3)OCn3c-4cc4c(C#N)cccc43)cc12` [Compound 23], the IC50 in the experiment on HCV replicon genotype 1a (Hepatitis C virus, 96 h) was found to be 0.9 nM; in the experiment with HCV replicon genotype 1b (Hepatitis C virus, 96 h) it was 1.2 nM.
`CNC(=O)c1c(-c2ccc(F)cc2)oc2cc(N(C)S(C)(=O)=O)c(-c3ccc4c(c3)-c3cc5ccccc5n3CC(NCCN3CCOCC3)CO4)cc12` (stereo not shown) [Compound 83]: the IC50 in the experiment with HCV replicon genotype 1a (Hepatitis C virus, 96 h) turned out to be 15 nM; in the experiment on HCV replicon genotype 1b (Hepatitis C virus, 96 h) it was 12 nM.
`CNC(=O)c1c(-c2ccc(F)cc2)oc2cc(N(C)S(C)(=O)=O)c(-c3ncc4c(n3)-c3cc5cc(F)ccc5n3CO4)cc12` [Compound 6]: the IC50 with HCV replicon genotype 1a (Hepatitis C virus, 96 h) worked out at 1.5 nM; with HCV replicon genotype 1b (Hepatitis C virus, 96 h), 2.3 nM.
As to `CNC(=O)c1c(-c2ccc(F)cc2)oc2cc(N(CC3CC3)S(C)(=O)=O)c(-c3ccc4c(n3)-c3cc5c(F)cccc5n3CO4)cc12` [Compound 200], the IC50 with HCV replicon genotype 1a (Hepatitis C virus, 96 h) turned out to be 14 nM; in the experiment with HCV replicon genotype 1b (Hepatitis C virus, 96 h) it was 22 nM.
Regarding `CN(c1cc2oc(-c3ccc(F)cc3)c(C(N)=O)c2cc1-c1ccc2c(n1)-c1cc3c(F)cccc3n1CO2)S(C)(=O)=O` [Compound 154], the IC50 in the experiment on HCV replicon genotype 1a (Hepatitis C virus, 96 h) came to 2.7 nM; with HCV replicon genotype 1b (Hepatitis C virus, 96 h), 2.2 nM.
As for `CNC(=O)c1c(-c2ccc(F)cc2)oc2cc(N(C)S(C)(=O)=O)c(-c3ccc4c(n3)-c3cc5c(C#N)cccc5n3CO4)cc12` [Compound 12], the IC50 with HCV replicon genotype 1a (Hepatitis C virus, 96 h) worked out at 1.6 nM; in the experiment on HCV replicon genotype 1b (Hepatitis C virus, 96 h) it was 1.7 nM.
Turning to `CNC(=O)c1c(-c2ccc(F)cc2)oc2cc(N(C)S(C)(=O)=O)c(-c3ccc4c(n3)-c3cc5c(F)cccc5n3C(C(C)(C)O)O4)cc12` (stereo not shown) [Compound 101, 5-(11-fluoro-6-(2-hydroxypropan-2-yl)-6H-pyrido[2′,3′,5,6][1,3]oxazino[3,4-a]indol-2-yl)-2-(4-fluorophenyl)-N-methyl-6-(N-methylmethylsulfonamido)benzofuran-3-carboxamide], the IC50 in the experiment on HCV replicon genotype 1a (Hepatitis C virus, 96 h) was 5.8 nM; with HCV replicon genotype 1b (Hepatitis C virus, 96 h) it was 8.7 nM.
On the same counts, the results for `CNC(=O)c1c(-c2ccc(F)cc2)oc2cc(-c3ccsc3)c(-c3ccc4c(n3)-c3cc5c(F)cccc5n3CO4)cc12` [Compound 166] are 69 nM and 27 nM.
Take `CNC(=O)c1c(-c2ccc(F)cc2)oc2cc(N(C)S(C)(=O)=O)c(-c3cc4c(cn3)OCn3c-4cc4cc(F)ccc43)cc12` [Compound 35]: the IC50 in the experiment on HCV replicon genotype 1a (Hepatitis C virus, 96 h) was determined as 2.5 nM; in the experiment on HCV replicon genotype 1b (Hepatitis C virus, 96 h), 4.7 nM.
As to `CNC(=O)c1c(-c2ccc(F)cc2)oc2cc(N(CC(F)F)S(C)(=O)=O)c(-c3ncc4c(n3)-c3cc5c(F)cccc5n3CO4)cc12` [Compound 186], the IC50 with HCV replicon genotype 1a (Hepatitis C virus, 96 h) amounted to 4.4 nM; in the experiment on HCV replicon genotype 1b (Hepatitis C virus, 96 h), 7.6 nM.
On to `CNC(=O)c1c(-c2ccc(F)cc2)oc2cc(N(C)S(C)(=O)=O)c(-c3ccc4c(c3)-c3cc5ccccc5n3CCO4)cc12` [Compound 42, 5-(6,7-dihydrobenzo[6,7][1,4]oxazepino[4,5-a]indol-2-yl)-2-(4-fluorophenyl)-N-methyl-6-(N-methylmethylsulfonamido)benzofuran-3-carboxamide], for which the IC50 was found to be 3.1 nM with HCV replicon genotype 1a (Hepatitis C virus, 96 h) and 4.5 nM in the experiment on HCV replicon genotype 1b (Hepatitis C virus, 96 h).
Take `CNC(=O)c1c(-c2ccc(F)cc2)oc2cc(N(C)S(C)(=O)=O)c(-c3ccc4c(n3)-c3cc5c(CO)cccc5n3CO4)cc12` [Compound 72, 2-(4-fluorophenyl)-5-(11-(hydroxymethyl)-6H-pyrido[2′,3′:5,6][1,3]oxazino[3,4-a]indol-2-yl)-N-methyl-6-(N-methylmethylsulfonamido)benzofuran-3-carboxamide]: the IC50 with HCV replicon genotype 1a (Hepatitis C virus, 96 h) stood at 52 nM; with HCV replicon genotype 1b (Hepatitis C virus, 96 h) it was 9 nM.
Turning to `CNC(=O)c1c(-c2ccc(F)cc2)oc2cc(N(C)S(C)(=O)=O)c(-c3ccc4c(n3)-c3cc5c(F)cccc5n3C(C)O4)cc12` (stereo not shown) [Compound 38], the IC50 with HCV replicon genotype 1a came to 3.2 nM; in the experiment with HCV replicon genotype 1b it was 5.8 nM.
Regarding `CONC(=O)c1c(-c2ccc(F)cc2)oc2cc(N(C)S(C)(=O)=O)c(-c3ccc4c(n3)-c3cc5c(F)cccc5n3CO4)cc12` [Compound 153], the IC50 in the experiment on HCV replicon genotype 1a (Hepatitis C virus, 96 h) was 2.5 nM; in the experiment on HCV replicon genotype 1b (Hepatitis C virus, 96 h), 4.9 nM.
